“And” between values parts separate entries of the source, which are not always exact repeats. Identical values can stand only once. Like-named read-outs stand apart in the source and are kept apart here.
Assays:
[1] = type: in vivo
Description: Additional in vivo cancer studies are presented in a tabular form below. The data is presented in the following format—dose regimen in parenthesis, dosage in mg/kg: tumor growth suppression (tg supp.), toxic deaths/number of test subjects (deaths), % weight change (wt).

herpes = experiment: In vivo herpes screening test; set-up: species or system mice; settings: mouse, in vivo
Procedure: The positive control was acyclovir at 75 mg/kg dose; 60% of the mice survived with a mean death date of 17.2 days.

[2] = system: Human Tumor Colony Forming Units; experiment: In Vitro Human Tumor Colony Forming Units Test; settings: for tumors that had ≧50% survival / tumors tested, total line: all tumor types
lung = type: in vivo; settings: A549-lung, 500 mg/kg
[3] = system: HIV-1 in U1 cells (promonocytic, from U937); experiment: Additional chronic HIV studies, monocytes; type: cell-based; settings: concentration not given
Procedure: (§1) Chronic HIV-1 infected cells U1 were derived from an acute HIV-1 infection of the promonocytic cell line, U937. The chronic HIV-1 infected cells, ACH-2 were derived from an acute HIV-1 infection of the T cell line, A3.01.
(§2) These cells were cultured in medium and the phorbol ester, PMA. PMA causes the cells (both U1 and ACH-2) to be activated and not divide but it also causes the U-1 cells to differentiate. […] Cell viability was measured when these cell lines were treated with the test compound.
(§3) Both cell lines constituitively produce a small amount of HIV-1. ACH-2 cell lines tend to produce more HIV-1 than U1 cells as shown by p24 ELISA. When either cell line is cultured in the presence of PMA there is an increase in the quantity of HIV-1 produced as measured by the p24 antigen ELISA.
(§4) In addition, the number of […] positive HIV mRNA expressing cells per microscopic field is measured. Comparisons can be made from these numbers since the same number of cells were adhered to the glass slides for each drug concentration 10×10^6 cells/ml).
(§5) These cells were treated with test samples. […] The positive control was interferon which suppressed HIV monocytes replication by 80%.

[4] = system: HIV-1 in ACH-2 cells (T cell line A3.01); experiment: Additional chronic HIV studies, T cells; type: cell-based; settings: concentration not given
Procedure: as §1, §2, §3, §4, §5

influenza = experiment: In vivo model for influenza; set-up: species or system mice; settings: mouse, in vivo
Procedure: The positive control was amantadine (75 mg/kg) with 100% of the mice surviving for 21 days. 2-(Methoxycarbonylamino)benzimidazole was not active in the same test.

colon = experiment: Tumor growth reduction in mice models (Tables 5 and 6), colon; type: in vivo; settings: HT29-colon, 2500 mg/kg
A549 lung tumor cells = experiment: MTT cell viability test, lung tumor cells; type: cell-based, human; settings: MTT, 5 day incubation
rhinovirus = experiment: In vitro rhinovirus model; type: cell-based
P388 = experiment: P-388 model for leukemia, T/C; type: in vivo, mice
Description: In the P-388 model for leukemia there was a dose responsive effect and the results were good.
The NCI Measure of Success is T/C=125.

[5] = DU-145, 4000 mg/kg twice weekly
[6] = DU-145, 5000 mg/kg twice weekly
[7] = DU-145, 6000 mg/kg twice weekly
[8] = HT29 (colon), 2000 mg/kg twice weekly
[9] = HT29 (colon), 3000 mg/kg twice weekly
[10] = HT29 (colon), 4000 mg/kg twice weekly
[11] = HT29 (colon), 5000 mg/kg twice weekly
[12] = HT29 (colon), 6000 mg/kg twice weekly
[13] = MCF-7L (breast), 4000 mg/kg twice weekly
[14] = MCF-7L (breast), 5000 mg/kg twice weekly
[15] = MX1 xenograft, 4000 mg/kg twice weekly
[16] = MX1 xenograft, 5000 mg/kg twice weekly
[17] = MX1 xenograft, 6000 mg/kg twice weekly
[18] = SK-MES, 4000 mg/kg twice weekly
[19] = SK-MES, 5000 mg/kg twice weekly
[20] = SK-MES, 6000 mg/kg twice weekly

Compound: COC(=O)Nc1nc2ccccc2[nH]1 [carbendazim, 2-methoxycarbonylamino-benzimidazole]
- % weight change (wt) ([1]; A549 (lung), 500 mg/kg): +10%
- toxic deaths/number of test subjects (deaths) ([1]; A549 (lung), 500 mg/kg): 0/10
- tumor growth suppression (tg supp.) ([1]; A549 (lung), 500 mg/kg): 57%
- toxic deaths/number of test subjects (deaths) ([1]; A549 (lung), 2500 mg/kg): 10/10
- % weight change (wt) [1, 5]: −5%
- toxic deaths/number of test subjects (deaths) [1, 5]: 0/10
- tumor growth suppression (tg supp.) [1, 5]: 52%
- % weight change (wt) [1, 6]: −8%
- toxic deaths/number of test subjects (deaths) [1, 6]: 1/10
- tumor growth suppression (tg supp.) [1, 6]: 48%
- % weight change (wt) [1, 7]: −6%
- toxic deaths/number of test subjects (deaths) [1, 7]: 1/10
- tumor growth suppression (tg supp.) [1, 7]: 33%
- % weight change (wt) [1, 8]: +3%
- toxic deaths/number of test subjects (deaths) [1, 8]: 0/10
- tumor growth suppression (tg supp.) [1, 8]: 36%
- % weight change (wt) [1, 9]: −6%
- toxic deaths/number of test subjects (deaths) [1, 9]: 2/10
- tumor growth suppression (tg supp.) [1, 9]: 65%
- % weight change (wt) [1, 10]: −12%
- toxic deaths/number of test subjects (deaths) [1, 10]: 3/10
- tumor growth suppression (tg supp.) [1, 10]: 78%
- % weight change (wt) [1, 11]: −8%
- toxic deaths/number of test subjects (deaths) [1, 11]: 2/10
- tumor growth suppression (tg supp.) [1, 11]: 79%
- % weight change (wt) [1, 12]: −25%
- toxic deaths/number of test subjects (deaths) [1, 12]: 9/10
- tumor growth suppression (tg supp.) [1, 12]: 97%
- % weight change (wt) [1, 13]: −7%
- toxic deaths/number of test subjects (deaths) [1, 13]: 5/10
- tumor growth suppression (tg supp.) [1, 13]: 94%
- % weight change (wt) [1, 14]: −8%
- toxic deaths/number of test subjects (deaths) [1, 14]: 7/10
- tumor growth suppression (tg supp.) [1, 14]: 100%
- toxic deaths/number of test subjects (deaths) ([1]; MCF-7L (breast), 6000 mg/kg twice weekly): 10/10
- % weight change (wt) [1, 15]: −1%
- toxic deaths/number of test subjects (deaths) [1, 15]: 0/10
- tumor growth suppression (tg supp.) [1, 15]: 48%
- % weight change (wt) [1, 16]: −4%
- toxic deaths/number of test subjects (deaths) [1, 16]: 1/10
- tumor growth suppression (tg supp.) [1, 16]: 63%
- % weight change (wt) [1, 17]: −4%
- toxic deaths/number of test subjects (deaths) [1, 17]: 1/9
- tumor growth suppression (tg supp.) [1, 17]: 70%
- % weight change (wt) [1, 18]: +3%
- toxic deaths/number of test subjects (deaths) [1, 18]: 2/10
- tumor growth suppression (tg supp.) [1, 18]: 45%
- % weight change (wt) [1, 19]: +2%
- toxic deaths/number of test subjects (deaths) [1, 19]: 1/10
- tumor growth suppression (tg supp.) [1, 19]: 44%
- % weight change (wt) [1, 20]: −2%
- toxic deaths/number of test subjects (deaths) [1, 20]: 3/10
- tumor growth suppression (tg supp.) [1, 20]: 69%
- activity (herpes): no activity
- positive results / tumors tested ([2]; 1 Hour Exposure, 0.5 μg/ml): 0/1
- positive results / tumors tested ([2]; 1 Hour Exposure, 5.0 μg/ml): 0/1
- positive results / tumors tested ([2]; 1 Hour Exposure, 50.0 μg/ml): 0/1
- tumors that had ≧50% survival / tumors tested ([2]; Brain, 2nd '1 Hour Exposure' group, c4-c7 = 0.5, 5.0, 10, 50 μg/ml): 0/2 and 2/2
- tumors that had ≧50% survival / tumors tested ([2]; Breast, 1 Hour Exposure, c1-c3 = 0.5, 5.0, 50 μg/ml): 0/1
- tumors that had ≧50% survival / tumors tested ([2]; Breast, 2nd '1 Hour Exposure' group, c4-c7 = 0.5, 5.0, 10, 50 μg/ml): 0/3 and 0/4 and 0/1 and 2/3
- tumors that had ≧50% survival / tumors tested ([2]; Cervix, 2nd '1 Hour Exposure' group, c4-c7 = 0.5, 5.0, 10, 50 μg/ml): 0/1 and 1/1
- tumors that had ≧50% survival / tumors tested ([2]; Colon, 1 Hour Exposure, c1-c3 = 0.5, 5.0, 50 μg/ml): 0/1
- tumors that had ≧50% survival / tumors tested ([2]; Colon, 2nd '1 Hour Exposure' group, c4-c7 = 0.5, 5.0, 10, 50 μg/ml): 0/5 and 1/5 and 2/5
- positive results / tumors tested ([2]; Continuous Exposure, 0.5 μg/ml): 0/14
- positive results / tumors tested ([2]; Continuous Exposure, 5.0 μg/ml): 3/14
- positive results / tumors tested ([2]; Continuous Exposure, 50.0 μg/ml): 5/14
- tumors that had ≧50% survival / tumors tested ([2]; Head & Neck, 1 Hour Exposure, c1-c3 = 0.5, 5.0, 50 μg/ml): 0/1
- tumors that had ≧50% survival / tumors tested ([2]; Head & Neck, 2nd '1 Hour Exposure' group, c4-c7 = 0.5, 5.0, 10, 50 μg/ml): 0/1 and 1/1
- tumors that had ≧50% survival / tumors tested ([2]; Kidney, 1 Hour Exposure, c1-c3 = 0.5, 5.0, 50 μg/ml): 0/1
- tumors that had ≧50% survival / tumors tested ([2]; Kidney, 2nd '1 Hour Exposure' group, c4-c7 = 0.5, 5.0, 10, 50 μg/ml): 0/2 and 1/2
- tumors that had ≧50% survival / tumors tested ([2]; Lung, non-small cell, 1 Hour Exposure, c1-c3 = 0.5, 5.0, 50 μg/ml): 0/1
- tumors that had ≧50% survival / tumors tested ([2]; Lung, non-small cell, 2nd '1 Hour Exposure' group, c4-c7 = 0.5, 5.0, 10, 50 μg/ml): 0/6 and 2/6 and 0/1 and 2/5
- tumors that had ≧50% survival / tumors tested ([2]; Melanoma, 1 Hour Exposure, c1-c3 = 0.5, 5.0, 50 μg/ml): 0/2 and 1/2
- tumors that had ≧50% survival / tumors tested ([2]; Melanoma, 2nd '1 Hour Exposure' group, c4-c7 = 0.5, 5.0, 10, 50 μg/ml): 0/3 and 1/3 and 2/3
- tumors that had ≧50% survival / tumors tested ([2]; Mesothelioma, 2nd '1 Hour Exposure' group, c4-c7 = 0.5, 5.0, 10, 50 μg/ml): 0/1
- tumors that had ≧50% survival / tumors tested ([2]; Ovary, 1 Hour Exposure, c1-c3 = 0.5, 5.0, 50 μg/ml): 0/3
- tumors that had ≧50% survival / tumors tested ([2]; Ovary, 2nd '1 Hour Exposure' group, c4-c7 = 0.5, 5.0, 10, 50 μg/ml): 0/1 and 2/13 and 10/13
- tumors that had ≧50% survival / tumors tested ([2]; Sarcoma, 1 Hour Exposure, c1-c3 = 0.5, 5.0, 50 μg/ml): 0/1 and 1/1
- tumors that had ≧50% survival / tumors tested ([2]; Sarcoma, 2nd '1 Hour Exposure' group, c4-c7 = 0.5, 5.0, 10, 50 μg/ml): 0/1 and 1/1
- tumors that had ≧50% survival / tumors tested ([2]; Stomach, 2nd '1 Hour Exposure' group, c4-c7 = 0.5, 5.0, 10, 50 μg/ml): 0/1 and 1/1
- tumors that had ≧50% survival / tumors tested ([2]; Unknown Primary, 2nd '1 Hour Exposure' group, c4-c7 = 0.5, 5.0, 10, 50 μg/ml): 0/1
- tumors that had ≧50% survival / tumors tested ([2]; Uterus, 2nd '1 Hour Exposure' group, c4-c7 = 0.5, 5.0, 10, 50 μg/ml): 0/3 and 2/3
- tumors that had ≧50% survival / tumors tested, total line ([2]; 1 Hour Exposure, c1-c3 = 0.5, 5.0, 50 μg/ml): 0/11 and 2/11
- tumors that had ≧50% survival / tumors tested, total line ([2]; 2nd '1 Hour Exposure' group, c4-c7 = 0.5, 5.0, 10, 50 μg/ml): 0/4 and 6/44 and 0/3 and 27/41
- Tumor Growth Decrease (%) (lung): 57%
- suppression of replication in the HIV monocytes [3]: 9%
- increase of T-cell HIV replication [4]: 44%
- activity (influenza): not active
- Tumor Growth Decrease (%) (colon): 54%
- EC-50 Result (A549 lung tumor cells; A549, first column): 0.856 ppm
- EC-50 Result (A549 lung tumor cells; A549, second column): 0.836 ppm
- therapeutic index (TI), ratio of toxic dose to efficacious dose (rhinovirus): 1-3
- T/C (P388; 500 mg/kg twice weekly): 141
- weight change (%) (P388; 500 mg/kg twice weekly): −0.64%
- T/C (P388; 1000 mg/kg twice weekly): 176
- weight change (%) (P388; 1000 mg/kg twice weekly): −4.75%
- T/C (P388; 1250 mg/kg twice weekly): 124
- weight change (%) (P388; 1250 mg/kg twice weekly): +1.99%
- T/C (P388; 2000 mg/kg twice weekly): 169
- weight change (%) (P388; 2000 mg/kg twice weekly): −11.63%
- T/C (P388; 2500 mg/kg twice weekly): 169
- weight change (%) (P388; 2500 mg/kg twice weekly): +3.16%
- T/C (P388; 5000 mg/kg twice weekly): 198
- weight change (%) (P388; 5000 mg/kg twice weekly): −0.64%
- Increased Life Span (P388; P388-luekemia, 1000 mg/kg): 129%
- Increased Life Span (P388; P388-luekemia, 2000 mg/kg): 148%
- decreased life span (P388; P388-luekemia, 4000 mg/kg, printed in column Increased Life Span): 9%
